# Source: US11382892B2, “Method for administration” (Hoffmann-La Roche Inc., priority 2012, dated 2022)
# Several values for one entry are separate records, joined by “and”; a condition that tells them apart may be missing. Equal entries are not always repeated.
# Tests used:
# [1] = test system: human osteosarcoma cancer xenograft model SJSA1; assay: Antitumor activity (tumor volume, TGI, regression) in SJSA1 xenograft; type: in vivo, mice; conditions: for Full Regression / Partial Regression: 10 animals per group
# Description: Efficacy data was graphically represented as the mean tumor volume*standard error of the mean (SEM). In addition, tumor volumes of treated groups were presented as percentages of tumor volumes of the control groups (% T/C), using the formula: 100×((T−T0)/(C−C0)), where T represented mean tumor volume of a treated group on a specific day during the experiment, T0 represented mean tumor volume of the same […] group on the first day of treatment; C represented mean tumor volume of a control group on the specific day during the experiment, and C0 represented mean tumor volume of the same […] group on the first day of treatment.
# Tumor volume (in cubic millimeters) was calculated using the ellipsoid formula: (D×(d^2))/2, where “D” represents the large diameter of the tumor and “d” represents the small diameter. In some cases, tumor regression and/or percent change in tumor volume was calculated using the formula: ((T−T0)/T0)×100, where ‘T’ represents mean tumor volume of the treated group at a particular day, and ‘T0’ represents mean tumor volume of the same treated group at initiation of treatment.
# All dose levels are reported as the actual dosage of Compound A rather than including drug plus polymer.
# Female athymic Crl:NU-Foxn1nu mice (10/group), obtained from Charles River Laboratories (Wilmington, Del.) were utilized when they were approximately 10-12 weeks of age and weighed 23-25 g. The health of the mice was assessed daily by gross observation and analyses of blood samples taken from sentinel animals housed on shared shelf racks. All animals were allowed to acclimate and recover from any shipping-related stress for a minimum of 72 hours prior to experimental use. Autoclaved water and irradiated food (5058-ms Pico Lab mouse chow, Purina Mills, Richmond, Ind.) were provided ad libitum, and the animals were maintained on a 12 hour light and dark cycle. Cages, bedding and water bottles were autoclaved before use and changed weekly. All animal experiments were conducted in accordance with the Guide for the Care and Use of Laboratory Animals, local regulations, and protocols approved by the Roche Animal Care and Use Committee in an AAALAC accredited facility.
# SJSA cells (ATCC) were maintained in RPMI 1640+10% (v/v) heat-inactivated FBS+i % (v/v) […] L-glutamine. Each mouse received 5×10^6 cells in a 1:1 mixture of phosphate buffered saline and Matrigel in a total volume of 0.2 ml. Cells were implanted subcutaneously in the right flank using a 1 cc syringe and a 26 gauge needle.
# Treatment duration was 2-4 weeks. Dates of tumor implant, treatment initiation (study start date), and termination of treatment (study end date) can be found in Table 6 below. The starting tumor volume for this study was about 220 mm^3. Tumor volumes and animal body weights were measured three times per week and animals were monitored for clinical signs daily.
# tumor proliferation = assay: FLT PET imaging of tumor proliferation in patients; type: in vivo, human; conditions: for FLT PET Average % CBL: cohort average; for FLT PET Median % CBL: cohort median; for FLT PET % CBL Cycle 1: individual patients
# Procedure: The 10 mg tablets contain hypromellose acetate succinate, mannitol, microcrystalline cellulose, croscarmellose sodium, colloidal silicon dioxide, and magnesium stearate. The film-coat consists of hypromellose, titanium dioxide, talc, triacetin, iron oxide yellow, and iron oxide red. The 50 mg, 200 mg, and 400 mg film coated tablets contain the excipients hypromellose acetate succinate, croscarmellose sodium, colloidal silicon dioxide, and magnesium stearate. The film-coat consists of polyvinyl alcohol, titanium dioxide, polyethylene glycol, talc, iron oxide yellow, iron oxide red, and iron oxide black. […]
# A negative percent change from baseline is indicative of an antiproliferative effect.
# [2] = 100 mg/kg QD po 2 on/12 off x 2
# [3] = 200 mg/kg (two 100 mg/kg doses 8 hr apart) 1x/wk po
structure (smiles),measurement,setting,value
"COc1cc(C(=O)O)ccc1NC(=O)[C@@H]1N[C@@H](CC(C)(C)C)[C@](C#N)(c2ccc(Cl)cc2F)[C@H]1c1cccc(Cl)c1F [Compound A, 4-{[(2R,3S,4R,5S)-4-(4-Chloro-2-fluoro-phenyl)-3-(3-chloro-2-fluoro-phenyl)-4-cyano-5-(2,2-dimethyl-propyl)-pyrrolidine-2-carbonyl]-amino}-3-methoxy-benzoic acid]",% Inhibition end of study Day: 32,[1]; 7.5 mg/kg QD po,66%
same,% T/C End of Study Day: 32,[1]; 7.5 mg/kg QD po,34%
same,Mean Tumor Volume (mm3) End Study Day: 32,[1]; 7.5 mg/kg QD po,18.01 mm3
same,Full Regression,[1]; 7.5 mg/kg QD po,0
same,Partial Regression,[1]; 7.5 mg/kg QD po,0
same,% Inhibition end of study Day: 32,[1]; 15 mg/kg QD po,79%
same,% T/C End of Study Day: 32,[1]; 15 mg/kg QD po,21%
same,Mean Tumor Volume (mm3) End Study Day: 32,[1]; 15 mg/kg QD po,16.42 mm3
same,Full Regression,[1]; 15 mg/kg QD po,0
same,Partial Regression,[1]; 15 mg/kg QD po,0
same,% Inhibition end of study Day: 32,[1]; 20 mg/kg QD po 20 on/8 off,98%
same,% T/C End of Study Day: 32,[1]; 20 mg/kg QD po 20 on/8 off,2%
same,Mean Tumor Volume (mm3) End Study Day: 32,[1]; 20 mg/kg QD po 20 on/8 off,315.19 mm3
same,Full Regression,[1]; 20 mg/kg QD po 20 on/8 off,0
same,Partial Regression,[1]; 20 mg/kg QD po 20 on/8 off,5
same,% Inhibition end of study Day: 32,[1]; 30 mg/kg QD po,regression
same,% T/C End of Study Day: 32,[1]; 30 mg/kg QD po,−1%
same,Average % Regression per Group,[1]; 30 mg/kg QD po,13%
same,Mean Tumor Volume (mm3) End Study Day: 32,[1]; 30 mg/kg QD po,19.35 mm3
same,Full Regression,[1]; 30 mg/kg QD po,0
same,Partial Regression,[1]; 30 mg/kg QD po,7
same,% Inhibition end of study Day: 32,[1]; 50 mg/kg 1x/wk po,57%
same,% T/C End of Study Day: 32,[1]; 50 mg/kg 1x/wk po,43%
same,Mean Tumor Volume (mm3) End Study Day: 32,[1]; 50 mg/kg 1x/wk po,22.66 mm3
same,Full Regression,[1]; 50 mg/kg 1x/wk po,0
same,Partial Regression,[1]; 50 mg/kg 1x/wk po,0
same,% Inhibition end of study Day: 32,[1]; 50 mg/kg QD po 2 on/5 off x 4,99%
same,% T/C End of Study Day: 32,[1]; 50 mg/kg QD po 2 on/5 off x 4,1%
same,Mean Tumor Volume (mm3) End Study Day: 32,[1]; 50 mg/kg QD po 2 on/5 off x 4,257.29 mm3
same,Full Regression,[1]; 50 mg/kg QD po 2 on/5 off x 4,0
same,Partial Regression,[1]; 50 mg/kg QD po 2 on/5 off x 4,3
same,% Inhibition end of study Day: 32,[1]; 50 mg/kg QD po 4 on/10 off x 2,99%
same,% T/C End of Study Day: 32,[1]; 50 mg/kg QD po 4 on/10 off x 2,1%
same,Mean Tumor Volume (mm3) End Study Day: 32,[1]; 50 mg/kg QD po 4 on/10 off x 2,244.70 mm3
same,Full Regression,[1]; 50 mg/kg QD po 4 on/10 off x 2,0
same,Partial Regression,[1]; 50 mg/kg QD po 4 on/10 off x 2,6
same,% Inhibition end of study Day: 32,[1]; 80 mg/kg QD po 5 on/23 off,regression
same,% T/C End of Study Day: 32,[1]; 80 mg/kg QD po 5 on/23 off,−2%
same,Average % Regression per Group,[1]; 80 mg/kg QD po 5 on/23 off,35%
same,Mean Tumor Volume (mm3) End Study Day: 32,[1]; 80 mg/kg QD po 5 on/23 off,128.05 mm3
same,Full Regression,[1]; 80 mg/kg QD po 5 on/23 off,2
same,Partial Regression,[1]; 80 mg/kg QD po 5 on/23 off,6
same,% Inhibition end of study Day: 32,[1]; 100 mg/kg 1x/wk po,94%
same,% T/C End of Study Day: 32,[1]; 100 mg/kg 1x/wk po,6%
same,Mean Tumor Volume (mm3) End Study Day: 32,[1]; 100 mg/kg 1x/wk po,474.73 mm3
same,Full Regression,[1]; 100 mg/kg 1x/wk po,0
same,Partial Regression,[1]; 100 mg/kg 1x/wk po,1
same,% Inhibition end of study Day: 32,[1]; 100 mg/kg QD po 2 on/5 off x 4,regression
same,% T/C End of Study Day: 32,[1]; 100 mg/kg QD po 2 on/5 off x 4,−2%
same,Average % Regression per Group,[1]; 100 mg/kg QD po 2 on/5 off x 4,47%
same,Mean Tumor Volume (mm3) End Study Day: 32,[1]; 100 mg/kg QD po 2 on/5 off x 4,25.68 mm3
same,Full Regression,[1]; 100 mg/kg QD po 2 on/5 off x 4,0
same,Partial Regression,[1]; 100 mg/kg QD po 2 on/5 off x 4,9
same,% Inhibition end of study Day: 32,[1]; [2],regression
same,% T/C End of Study Day: 32,[1]; [2],0%
same,Average % Regression per Group,[1]; [2],11%
same,Mean Tumor Volume (mm3) End Study Day: 32,[1]; [2],179.88 mm3
same,Full Regression,[1]; [2],0
same,Partial Regression,[1]; [2],7
same,% Inhibition end of study Day: 32,[1]; [3],regression
same,% T/C End of Study Day: 32,[1]; [3],−1%
same,Average % Regression per Group,[1]; [3],29%
same,Mean Tumor Volume (mm3) End Study Day: 32,[1]; [3],158.95 mm3
same,Full Regression,[1]; [3],0
same,Partial Regression,[1]; [3],7
same,growth inhibitory activity (FIG. 1),[1]; 5 day on/23 day off treatment schedule,good growth inhibitory activity
same,FLT PET Average % CBL,tumor proliferation; BM-A1 800 mg bid Qwk × 3,−17.0%
same,FLT PET Median % CBL,tumor proliferation; BM-A1 800 mg bid Qwk × 3,−20.5%
same,FLT PET % CBL Cycle 1,tumor proliferation; BM-A1 800 mg bid Qwk × 3,−28.5% and −21.9% and −29.5% and 8.9% and −19.0% and −11.7%
same,FLT PET Average % CBL,tumor proliferation; BM-A2 1200 mg bid Qwk × 3,−0.9%
same,FLT PET Median % CBL,tumor proliferation; BM-A2 1200 mg bid Qwk × 3,3.2%
same,FLT PET % CBL Cycle 1,tumor proliferation; BM-A2 1200 mg bid Qwk × 3,−5.0% and 21.1% and −31.1% and 11.3% and −73.1%
same,FLT PET Average % CBL,tumor proliferation; BM-B1 400 mg bid × 5 d,−43.4%
same,FLT PET Median % CBL,tumor proliferation; BM-B1 400 mg bid × 5 d,−32.2%
same,FLT PET % CBL Cycle 1,tumor proliferation; BM-B1 400 mg bid × 5 d,−82.5% and −29.3% and −23.4% and −32.2%
same,FLT PET Average % CBL,tumor proliferation; BM-B2 500 mg bid × 3 d,−39.2%
same,FLT PET Median % CBL,tumor proliferation; BM-B2 500 mg bid × 3 d,−34.9%
same,FLT PET % CBL Cycle 1,tumor proliferation; BM-B2 500 mg bid × 3 d,−34.9% and −62.4% and −24.7% and −19.4% and −54.5%
same,FLT PET Average % CBL,tumor proliferation; BM-B3 500 mg qd × 5 d,−29.04%
same,FLT PET Median % CBL,tumor proliferation; BM-B3 500 mg qd × 5 d,−31.0%
same,FLT PET % CBL Cycle 1,tumor proliferation; BM-B3 500 mg qd × 5 d,−56.4% and −34.3% and −21.7% and −31% and −1.8%
same,antiproliferative effect by FLT PET,"tumor proliferation; all doses tested, in particular 3 day and 5 day schedules",antiproliferative effects was seen in all doses tested
